# Measured values reported in patent US20210386738A1, “COMBINATION OF PRMT5 INHIBITORS AND BCL-2 INHIBITORS” (GLAXOSMITHKLINE INTELLECTUAL PROPERTY DEVELOPMENT LIMITED, priority 2018, published 2021).
# Key:
# lymphoma cell line DB = test: Serial dilutions: fixed ABT-199 concentration with Compound A titration, six-day cell proliferation; format: cell-based; conditions: for compound A required for gIC100: six days
# Experimental: Serial dilutions were performed for the combination to ascertain the change in gIC50, gIC100 and dEC50 when the inhibitors are used together in a PRMT5 inhibitor cell proliferation. A first compound plate was prepared where PRMT5 inhibitor, Compound A, was prepared with a 20-point, two-fold dilution series of compound A from column 1 to 20. A second compound plate was prepared using the BCL-2 inhibitor ABT-199. ABT-199 was titrated in a 16-point 2-fold dilution series from row A to Q. A third plate was then created by added equal volume of 12 ul (ABT-199) from each well in the second plate into the corresponding well in the first plate. The third plate comprised rows from A to Q, each row comprising a fixed concentration of ABT-199. Columns 1-20 comprised varying concentrations of compound A from the 20-point dilution. Plates were incubated for six days at the conditions described above. Lymphoma cell line DB was treated with the solution in each of the wells. Cell growth was measured using CellTiter-Glo (Promega) and luminescence signal was detected with a BioTek Synergy Neo microplate reader. A plate of untreated cells was read at the time of compound/biologic addition to determine the T0 value representing the starting number of cells. Data were fit with a four-parameter equation to generate a concentration response curve for each row using Assay Client software. A comparison was made across each row in the third plate to determine, when keeping a fixed concentration of ABT-199, what concentration of compound A is needed to reach the gIC50, gIC100 or dEC50 respectively and the fold change compared to treating the same cell with compound A alone.
# Tables 4a-c show the results of the above serial dilution experiments wherein ‘fold change’ is the difference between the amount of compound A needed to achieve gIC50, gIC100 or dEC50 respectively, compared to the amount of compound A needed to achieve gIC50, gIC100 or dEC50 respectively when compound A is given as a single agent.
# Z-138 = test: Standard 6-day growth-death assay, Z-138 as control for Compound A; format: cell-based; conditions: single agent or fixed 1:1 combination
# Experimental: The majority cell lines were obtained from GSK BioCat group, American Type Culture Collection (ATCC), or the Deutsche Sammlung von Mikroorganismen and Zellbulturen (DSMZ). All cell lines were maintained in growth medium in T75 cm^2 flasks, incubated at 37° C. with 5% CO2 and split every 3 to 4 days. Growth media conditions and cell line information are detailed in Table 1. Cells were counted using the Vi-Cell Analyzer (Beckman Coulter ViCell) to obtain viable cell counts.
# Optimal cell seeding density was determined for all cell lines by monitoring proliferation over a range of seeding densities in 384-well format and identifying the seeding density at which cells grew logarithmically throughout six days. 50 uL of cells per well were plated in 384-well plates at the optimal seeding density in preferred supplemented culture media. Three plates were prepared per cell line and incubated overnight at 37° C. in 5% CO2.
# In these studies, lymphoma cell lines were treated with PRMT5 inhibitor, compound A and BCL-2 targeted inhibitor, ABT-199 single agent or in combination using a fixed 1:1 ratio of each inhibitor over a 20-point titration. For compound A single and fixed 1:1 ratio combination with ABT-199 cell proliferation assay, cells were treated in duplicate with a 20-point, two-fold dilution series of Compound A, ABT-199 (≥14 μM top dose) single or combo treatment, and ≤0.15% DMSO final concentration. Plates were incubated for six days at the conditions described above. Cell growth was measured using CellTiter-Glo (Promega) and luminescence signal was detected with a BioTek Synergy Neo microplate reader. A plate of untreated cells was read at the time of compound/biologic addition to determine the T0 value representing the starting number of cells. Data were fit with a four-parameter equation to generate a concentration response curve using Assay Client software.
# Results were background corrected by subtraction of values from wells containing no cells, expressed as a percentage of the T0 value (value at time=0), and plotted against compound concentration. The T0 value was normalized to 100% and represents the number of cells present at the time of compound addition. The cellular response was determined for each compound using a 4- or 6-parameter curve fit of cell viability against concentration using Assay Client software. Growth IC50 (gIC50) values correspond to the concentration intersecting the mid-point of the growth window (between DMSO and T0 values). Growth IC100 (gIC100) values correspond to the concentration at which 100% growth inhibition is achieved, based on the growth window. The Ymin−T0 value, a measure of net population cell growth or death, is calculated by subtracting the T0 value (100%) from the Ymin value (%) that is determined from the fit of the concentration response curve. Death EC50 (dEC50) values correspond to the concentration at which 50% net cell death is observed.
# Individual curves were quality checked for three criteria: outlier data points, cell growth (population doubling ≥1.5), and proper curve fitting. […] Individual curves were QC checked for outlier data points, cell growth (population doubling ≥1.5), and proper curve fitting. Obvious outlier data points were omitted only as needed to ensure proper curve fit.
# For fixed ratio screening, combination activity was assessed by the fold change in gIC50 compared to the 2 single agent curves by dividing the compound ratio as necessary. Combinations showing >3-fold and >5-fold change from single agent are described as below: • Fold changes ≥5 are considered to represent strong synergy. • Fold changes between 3.0 and 4.9 are considered to represent weak synergy. • Fold changes <3 are considered to represent no synergy.
smiles,measurement,setting,value
O=C(NC[C@H](O)CN1CCc2ccccc2C1)c1ccnc(NC2CCC2)c1 [Compound A],"Fold change over compound A single agent gIC100 (6489 nM, most potent of the two agents)",lymphoma cell line DB; with fixed ABT-199 7 nM,1.0
same,compound A required for gIC100,lymphoma cell line DB; with fixed ABT-199 7 nM,6362 nM
same,"Fold change over compound A single agent gIC50 (631 nM, most potent of the two agents)",lymphoma cell line DB; with fixed ABT-199 14 nM,1.6
same,"Fold change over compound A single agent gIC100 (6489 nM, most potent of the two agents)",lymphoma cell line DB; with fixed ABT-199 14 nM,0.9
same,compound A required for gIC100,lymphoma cell line DB; with fixed ABT-199 14 nM,6896 nM
same,"Fold change over compound A single agent gIC50 (631 nM, most potent of the two agents)",lymphoma cell line DB; with fixed ABT-199 29 nM,1.8
same,"Fold change over compound A single agent gIC100 (6489 nM, most potent of the two agents)",lymphoma cell line DB; with fixed ABT-199 29 nM,1.2
same,compound A required for gIC100,lymphoma cell line DB; with fixed ABT-199 29 nM,5525 nM
same,"Fold change over compound A single agent gIC50 (631 nM, most potent of the two agents)",lymphoma cell line DB; with fixed ABT-199 57 nM,2.6
same,"Fold change over compound A single agent gIC100 (6489 nM, most potent of the two agents)",lymphoma cell line DB; with fixed ABT-199 57 nM,2.2
same,Fold change over top concentration of compound A or ABT-199 inhibitor used in the assay (since no dEC50 observed with single agents),lymphoma cell line DB; with fixed ABT-199 57 nM,1.2
same,compound A required for gIC100,lymphoma cell line DB; with fixed ABT-199 57 nM,3004 nM
same,"Fold change over compound A single agent gIC50 (631 nM, most potent of the two agents)",lymphoma cell line DB; with fixed ABT-199 115 nM,3.0
same,"Fold change over compound A single agent gIC100 (6489 nM, most potent of the two agents)",lymphoma cell line DB; with fixed ABT-199 115 nM,2.4
same,Fold change over top concentration of compound A or ABT-199 inhibitor used in the assay (since no dEC50 observed with single agents),lymphoma cell line DB; with fixed ABT-199 115 nM,1.4
same,compound A required for gIC100,lymphoma cell line DB; with fixed ABT-199 115 nM,2716 nM
same,"Fold change over compound A single agent gIC50 (631 nM, most potent of the two agents)",lymphoma cell line DB; with fixed ABT-199 229 nM,5.5
same,"Fold change over compound A single agent gIC100 (6489 nM, most potent of the two agents)",lymphoma cell line DB; with fixed ABT-199 229 nM,2.5
same,Fold change over top concentration of compound A or ABT-199 inhibitor used in the assay (since no dEC50 observed with single agents),lymphoma cell line DB; with fixed ABT-199 229 nM,1.4
same,compound A required for gIC100,lymphoma cell line DB; with fixed ABT-199 229 nM,2624 nM
same,"Fold change over compound A single agent gIC50 (631 nM, most potent of the two agents)",lymphoma cell line DB; with fixed ABT-199 458 nM,5.3
same,"Fold change over compound A single agent gIC100 (6489 nM, most potent of the two agents)",lymphoma cell line DB; with fixed ABT-199 458 nM,3.1
same,Fold change over top concentration of compound A or ABT-199 inhibitor used in the assay (since no dEC50 observed with single agents),lymphoma cell line DB; with fixed ABT-199 458 nM,1.7
same,compound A required for gIC100,lymphoma cell line DB; with fixed ABT-199 458 nM,2118 nM
same,"Fold change over compound A single agent gIC50 (631 nM, most potent of the two agents)",lymphoma cell line DB; with fixed ABT-199 916 nM,8.1
same,"Fold change over compound A single agent gIC100 (6489 nM, most potent of the two agents)",lymphoma cell line DB; with fixed ABT-199 916 nM,3.3
same,Fold change over top concentration of compound A or ABT-199 inhibitor used in the assay (since no dEC50 observed with single agents),lymphoma cell line DB; with fixed ABT-199 916 nM,2.6
same,compound A required for gIC100,lymphoma cell line DB; with fixed ABT-199 916 nM,1994 nM
same,"Fold change over compound A single agent gIC50 (631 nM, most potent of the two agents)",lymphoma cell line DB; with fixed ABT-199 1833 nM,8.5
same,"Fold change over compound A single agent gIC100 (6489 nM, most potent of the two agents)",lymphoma cell line DB; with fixed ABT-199 1833 nM,4.0
same,Fold change over top concentration of compound A or ABT-199 inhibitor used in the assay (since no dEC50 observed with single agents),lymphoma cell line DB; with fixed ABT-199 1833 nM,3.1
same,compound A required for gIC100,lymphoma cell line DB; with fixed ABT-199 1833 nM,1604 nM
same,"Fold change over compound A single agent gIC50 (631 nM, most potent of the two agents)",lymphoma cell line DB; with fixed ABT-199 3666 nM,7.8
same,"Fold change over compound A single agent gIC100 (6489 nM, most potent of the two agents)",lymphoma cell line DB; with fixed ABT-199 3666 nM,3.7
same,Fold change over top concentration of compound A or ABT-199 inhibitor used in the assay (since no dEC50 observed with single agents),lymphoma cell line DB; with fixed ABT-199 3666 nM,3.3
same,compound A required for gIC100,lymphoma cell line DB; with fixed ABT-199 3666 nM,1745 nM
same,"Fold change over compound A single agent gIC50 (631 nM, most potent of the two agents)",lymphoma cell line DB; with fixed ABT-199 7331 nM,43
same,"Fold change over compound A single agent gIC100 (6489 nM, most potent of the two agents)",lymphoma cell line DB; with fixed ABT-199 7331 nM,3.8
same,Fold change over top concentration of compound A or ABT-199 inhibitor used in the assay (since no dEC50 observed with single agents),lymphoma cell line DB; with fixed ABT-199 7331 nM,3.2
same,compound A required for gIC100,lymphoma cell line DB; with fixed ABT-199 7331 nM,1707 nM
same,EC50,"Z-138; Homo sapiens, 144 h, average of n=2, read-out: dEC50",794 nM
same,IC50,"Z-138; Homo sapiens, 144 h, average of n=2, read-out: gIC50",38 nM
same,Ymin-T0,Z-138; average of n=2,−93.1%
same,gIC100,Z-138; average of n=2,453 nM
